Values of other authors as cited in patent US20260124292A1, “MU[…] INFLUENZA VACCINE” (priority 2022, published 2026).

System: influenza A virus-specific CTL
Conditions: according to Boon et al. 2006
In the case of CTELKLSDY [SEQ ID NO: 4], the Immunodominance is listed as “(Intermediate”.
In the case of “ELRSRYWAI (listed as Alphainfluenzavirus influenzae) [SEQ ID NO: 2]”, the Immunodominance is listed as “(Intermediate”.
In the case of “RRSGAAGAAVK (listed as Alphainfluenzavirus influenzae) [SEQ ID NO: 16]”, the Immunodominance is given as “(Highly”.
In the case of “SRYWAIRTR (listed as Alphainfluenzavirus influenzae) [SEQ ID NO: 3]”, the Immunodominance is listed as “(Highly”.
